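Exposure lasted 48 hours, with cells grown in 96-well plates and compounds tested at five concentrations. GI50 is the concentration that inhibits growth by half. At the TGI there is no net growth.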
What was measured:
Test in all cases: DTP human tumour cell line panel, 48 h
SW-620 colon = test system: SW-620 colon
TK-10 renal = test system: TK-10 renal
CAKI-1 renal = test system: CAKI-1 renal
SNB-19 CNS = test system: SNB-19 CNS
MOLT-4 leukemia = test system: MOLT-4 leukemia
SK-OV-3 ovarian = test system: SK-OV-3 ovarian
HT29 colon = test system: HT29 colon
OVCAR-3 ovarian = test system: OVCAR-3 ovarian
A498 renal = test system: A498 renal
NCI-H226 lung = test system: NCI-H226 lung
IGROV1 ovarian = test system: IGROV1 ovarian
M14 melanoma = test system: M14 melanoma
LOX IMVI melanoma = test system: LOX IMVI melanoma
NCI/ADR-RES ovarian = test system: NCI/ADR-RES ovarian
ACHN renal = test system: ACHN renal
HCT-116 colon = test system: HCT-116 colon
SR leukemia = test system: SR leukemia
UACC-257 melanoma = test system: UACC-257 melanoma
MDA-MB-231 breast = test system: MDA-MB-231 breast
T-47D breast = test system: T-47D breast
SF-539 CNS = test system: SF-539 CNS
NCI-H460 lung = test system: NCI-H460 lung
786-0 renal = test system: 786-0 renal
MDA-MB-468 breast = test system: MDA-MB-468 breast
MCF7 breast = test system: MCF7 breast
BT-549 breast = test system: BT-549 breast
RPMI-8226 leukemia = test system: RPMI-8226 leukemia
EKVX NSCLC = test system: EKVX NSCLC
A549 NSCLC = test system: A549 NSCLC
SK-MEL-2 melanoma = test system: SK-MEL-2 melanoma

Q: For `CCOc1ccc(-c2cc(-c3cc(C(C)C)c(O)cc3C)nn2-c2ccc(S(N)(=O)=O)cc2)cc1`, which TGI (SW-620 colon) is on record?
A: 20 µM

Q: What about the GI50 (TK-10 renal) of the same compound?
A: 15.6 µM

Q: And the TGI (TK-10 renal)?
A: 29.1 µM

Q: What about the GI50 (CAKI-1 renal) of the same compound?
A: 4.92 µM

Q: What about the TGI (CAKI-1 renal) of the same compound?
A: 18 µM

Q: And the GI50 (SNB-19 CNS)?
A: 12.3 µM

Q: And the TGI (SNB-19 CNS)?
A: 24.8 µM

Q: What about the GI50 (MOLT-4 leukemia) of the same compound?
A: 4.02 µM

Q: And the TGI (MOLT-4 leukemia)?
A: 17.6 µM

Q: What about the GI50 (SK-OV-3 ovarian) of the same compound?
A: 10.7 µM

Q: What about the TGI (SK-OV-3 ovarian) of the same compound?
A: 22.7 µM

Q: What about the GI50 (HT29 colon) of the same compound?
A: 15.4 µM

Q: What about the TGI (HT29 colon) of the same compound?
A: 29.5 µM

Q: And the GI50 (OVCAR-3 ovarian)?
A: 4.55 µM

Q: What about the TGI (OVCAR-3 ovarian) of the same compound?
A: 15.3 µM

Q: And the GI50 (A498 renal)?
A: 13.4 µM

Q: And the TGI (A498 renal)?
A: 26.4 µM

Q: What about the GI50 (NCI-H226 lung) of the same compound?
A: 15.7 µM

Q: What about the TGI (NCI-H226 lung) of the same compound?
A: 37 µM

Q: And the GI50 (IGROV1 ovarian)?
A: 12.1 µM

Q: What about the TGI (IGROV1 ovarian) of the same compound?
A: 24.9 µM

Q: What about the GI50 (M14 melanoma) of the same compound?
A: 9.86 µM

Q: What about the TGI (M14 melanoma) of the same compound?
A: 22.4 µM

Q: What about the GI50 (LOX IMVI melanoma) of the same compound?
A: 5.65 µM

Q: What about the TGI (LOX IMVI melanoma) of the same compound?
A: 18.3 µM

Q: What about the GI50 (NCI/ADR-RES ovarian) of the same compound?
A: 3.15 µM

Q: And the TGI (NCI/ADR-RES ovarian)?
A: 12.2 µM

Q: And the GI50 (ACHN renal)?
A: 10.5 µM

Q: What about the TGI (ACHN renal) of the same compound?
A: 22.3 µM

Q: And the GI50 (HCT-116 colon)?
A: 5.46 µM

Q: What about the TGI (HCT-116 colon) of the same compound?
A: 18.2 µM

Q: And the GI50 (SR leukemia)?
A: 1.8 µM

Q: And the TGI (SR leukemia)?
A: 43.8 µM

Q: And the GI50 (UACC-257 melanoma)?
A: 10.4 µM

Q: What about the TGI (UACC-257 melanoma) of the same compound?
A: 22.5 µM

Q: What about the GI50 (MDA-MB-231 breast) of the same compound?
A: 6.78 µM

Q: What about the TGI (MDA-MB-231 breast) of the same compound?
A: 20.3 µM

Q: And the GI50 (T-47D breast)?
A: 3.71 µM

Q: What about the TGI (T-47D breast) of the same compound?
A: 17 µM

Q: What about the GI50 (SF-539 CNS) of the same compound?
A: 5.51 µM

Q: And the TGI (SF-539 CNS)?
A: 17.7 µM

Q: And the GI50 (NCI-H460 lung)?
A: 5.21 µM

Q: And the TGI (NCI-H460 lung)?
A: 18.1 µM

Q: And the GI50 (786-0 renal)?
A: 11.2 µM

Q: What about the TGI (786-0 renal) of the same compound?
A: 23.3 µM

Q: And the GI50 (MDA-MB-468 breast)?
A: 2.39 µM

Q: And the TGI (MDA-MB-468 breast)?
A: 6.76 µM

Q: What about the GI50 (MCF7 breast) of the same compound?
A: 4.88 µM

Q: What about the TGI (MCF7 breast) of the same compound?
A: 19.2 µM

Q: And the GI50 (BT-549 breast)?
A: 2.93 µM

Q: And the TGI (BT-549 breast)?
A: 11.4 µM

Q: And the GI50 (RPMI-8226 leukemia)?
A: 4.29 µM

Q: What about the TGI (RPMI-8226 leukemia) of the same compound?
A: 22.2 µM

Q: And the GI50 (EKVX NSCLC)?
A: 3.96 µM

Q: What about the TGI (EKVX NSCLC) of the same compound?
A: 15.2 µM

Q: What about the GI50 (A549 NSCLC) of the same compound?
A: 4.62 µM

Q: What about the TGI (A549 NSCLC) of the same compound?
A: 19.2 µM

Q: And the GI50 (SK-MEL-2 melanoma)?
A: 7.28 µM

Q: And the TGI (SK-MEL-2 melanoma)?
A: 20.8 µM
